Data on 1 compound can be found in patent US9730446B2, “Herbicidal compositions comprising 4-amino-3-chloro-6-(4-chloro-2-fluoro-3-methoxyphenyl)pyridine-2-carboxylic acid or a derivative thereof and propyzamide” (Dow AgroSciences LLC, priority 2013, dated 2017).

Assay in all cases: Postemergent herbicidal activity, greenhouse
Holding throughout (assay type): in vivo
What all share (conditions): foliar, 14 d

Experiment [1] has as its system ABUTH Abutilon theophrasti Medik. (velvetleaf). As to the method: (§1) Evaluation of Postemergent Herbicidal Activity. Seeds or nutlets of the desired test plant species were planted in Sun Gro Metro-Mix® 360 planting mixture, which typically has a pH of 6.0 to 6.8 and an organic matter content of about 30 percent, in plastic pots with a surface area of 64 square centimeters (cm^2). […] The plants were grown for 7-21 days (d) in a greenhouse with an approximate 15 hour (h) photoperiod which was maintained at about 23-29° C. during the day and 22-28° C. during the night. Nutrients and water were added on a regular basis and supplemental lighting was provided with overhead metal halide 1000-Watt lamps as necessary. The plants were employed for testing when they reached the first or second true leaf stage.
(§2) A weighed amount, determined by the highest rate to be tested, of each test compound was placed in a 25 milliliter (mL) glass vial and was dissolved in 4 mL of a 97:3 volume per volume (v/v) mixture of acetone and dimethyl sulfoxide (DMSO) to obtain concentrated stock solutions. […] The concentrated stock solutions obtained were diluted with 20 mL of an aqueous mixture containing acetone, water, isopropyl alcohol, DMSO, Atplus 411F crop oil concentrate, and Triton® X-155 surfactant in a 48.5:39:10:1.5:1.0:0.02 v/v ratio to obtain spray solutions containing the highest application rates. Additional application rates were obtained by serial dilution of 12 mL of the high rate solution into a solution containing 2 mL of a 97:3 v/v mixture of acetone and DMSO and 10 mL of an aqueous mixture containing acetone, water, isopropyl alcohol, DMSO, Atplus 411F crop oil concentrate, and Triton X-155 surfactant in a 48.5:39:10:1.5:1.0:0.02 v/v ratio to obtain 1/2×, 1/4×, 1/8× and 1/16× rates of the high rate. Compound requirements are based upon a 12 mL application volume at a rate of 187 liters per hectare (L/ha). Formulated compounds were applied to the plant material with an overhead Mandel track sprayer equipped with 8002E nozzles calibrated to deliver 187 L/ha over an application area of 0.503 square meters (m^2) at a spray height of 18 inches (43 cm) above the average plant canopy height. Control plants were sprayed in the same manner with the solvent blank.
(§3) Treatments consisted of the methyl ester of 4-amino-3-chloro-6-(4-chloro-2-fluoro-3-methoxyphenyl)pyridine-2-carboxylic acid (Cmpd 1) as technical grade material and propyzamide (Kerb 50 W) alone and in combination.
(§4) The treated plants and control plants were placed in a greenhouse as described above and watered by subirrigation to prevent wash-off of the test compounds. After 14 d, the condition of the test plants as compared with that of the untreated plants was determined visually and scored on a scale of 0 to 100 percent where 0 corresponds to no injury and 100 corresponds to complete kill.
(§5) Colby's equation was used to determine the herbicidal effects expected from the mixtures (Colby, S. R. Calculation of the synergistic and antagonistic response of herbicide combinations. Weeds 1967, 15, 20-22). More specifically, the following equation was used to calculate the expected activity of mixtures containing two active ingredients, A and B: Expected=A+B−(A×B/100) A=observed efficacy of active ingredient A at the same concentration as used in the mixture; B=observed efficacy of active ingredient B at the same concentration as used in the mixture.

Experiment [2] concerns CHEAL Chenopodium album L. (common lambsquarters). The method, then:
as §1, §2, §3, §4, §5

The subject of experiment [3] is CIRAR Cirsium arvense (L.) Scop. (Canada thistle). As to the method:
as §1, §2, §3, §4, §5

The test system of experiment [4] is EPHHL Euphorbia heterophylla L. (wild poinsettia). The method, then:
as §1, §2, §3, §4, §5

Experiment [5] concerns IPOHE Ipomoea hederacea (L.) Jacq. (ivyleaf morningglory). The method, then: as §1, §2, §3, §4, §5
Experiment [6] relates to SETFA Setaria faberi Herrm. (giant foxtail). The method, then:
as §1, §2, §3, §4, §5

For experiment [7], the system named is STEME Stellaria media (L.) Vill. (common chickweed). As to the method:
as §1, §2, §3, §4, §5

Consider `COC(=O)c1nc(-c2ccc(Cl)c(OC)c2F)cc(N)c1Cl` [Cmpd I, methyl ester of 4-amino-3-chloro-6-(4-chloro-2-fluoro-3-methoxyphenyl)pyridine-2-carboxylic acid], for which the “% control rated visually, ob (observed)” value in experiment [1] (Cmpd I 2.5 g ae/ha) was 87%; in experiment [1] (Cmpd I 5 g ae/ha), 85%; in experiment [1] (Cmpd I 10 g ae/ha), 90%; in experiment [2] (Cmpd I 2.5 g ae/ha), 82%; in experiment [2] (Cmpd I 5 g ae/ha), 90%; in experiment [2] (Cmpd I 10 g ae/ha), 91%. In addition, the “% control rated visually, ob (observed)” value came to 47% in experiment [3] (Cmpd I 2.5 g ae/ha); 53% in experiment [3] (Cmpd I 5 g ae/ha); 65% in experiment [3] (Cmpd I 10 g ae/ha); 85% in experiment [4] (Cmpd I 2.5 g ae/ha); 93% in experiment [4] (Cmpd I 5 g ae/ha); 100% in experiment [4] (Cmpd I 10 g ae/ha). Besides, the “% control rated visually, ob (observed)” value is 20% in experiment [5] (Cmpd I 2.5 g ae/ha); 38% in experiment [5] (Cmpd I 5 g ae/ha); 43% in experiment [5] (Cmpd I 10 g ae/ha); 0% in experiment [6] (Cmpd I 2.5 g ae/ha); 5% in experiment [6] (Cmpd I 5 g ae/ha); 35% in experiment [6] (Cmpd I 10 g ae/ha). Also, the “% control rated visually, ob (observed)” value in experiment [7] (Cmpd I 2.5 g ae/ha) was determined as 50%; in experiment [7] (Cmpd I 5 g ae/ha), 57%; in experiment [7] (Cmpd I 10 g ae/ha) it was 72%.
